From publication PMC7822874, “Chemoprotective antimalarials identified through quantitative high-throughput screening of Plasmodium blood and liver stage parasites” (Scientific Reports, 2021)
Where two headings read alike, the source gives them in different places.

Tested on: Plasmodium falciparum Dd2 asexual blood stage parasites
Test: microbe, parasite or virus in culture
Design: species or system Plasmodium falciparum Dd2 in human erythrocytes; single determination (one 11-point concentration-response curve)
Conditions: Plasmodium falciparum, DD2, Erythrocyte, 72 h

SMILES	AC50 (read-out: AC50) [µM]	AC50 [µM]
O=C(Nc1ccccc1)[C@H]1O[C@H](CCN2CCN(c3ccc(F)cc3)CC2)CC[C@@H]1O [NCGC00391966-01]	10.9	–
CC(C)N1CCN(Cc2ccc(-c3ccccc3)cc2)CC1CCO (centres unmarked) [MLS001000401-01]	6.68	–
CCOC(=O)c1ccc(Nc2nc(N)c3cc(OC)c(OC)cc3n2)cc1 [NCGC00107259-01]	1.88	–
COc1ccc(-c2ccc3ncc(Nc4cccc(C(F)(F)F)c4)n3n2)cn1 [NCGC00412495-01]	12.2	–
CC1=C[C@@H](CN(C)C)[C@H](C(C)C)C[C@H]1Cc1nc2cccc(C)c2[nH]1 [NCGC00393074-01]	15.3	–
CC1(c2ccccc2)N(Cc2ccc(O)cc2)C(=O)OC12CCN(Cc1c[nH]c3ccccc13)CC2 (centres unmarked) [NCGC00415668-01]	5.31	–
Cn1cccc1CN1CCCC2(Cc3ccccc3CNC2=O)C1 (centres unmarked) [NCGC00377565-01]	13.2	–
COc1cc(O)c(C(CCN2CCCCC2)c2cc(OC)c(OC)c(OC)c2)c(OC)c1 (centres unmarked) [MLS000879476-01]	2.66	–
CCN(CC)CCNC(O)=C1C(=O)c2cccc3c2N(CCC3)C1=O [MLS000078957-01]	10.6	–
CN1CCC2(CC1)CN(C(=O)CCc1ccccc1)Cc1ccccc1O2 [NCGC00456463-01]	6.68	–
COc1ccc(C2CC(c3cccs3)=NN2C(=O)c2ccc(Br)o2)cc1 (centres unmarked) [MLS000663972-01]	5.31	–
COc1ccc(CN2CC3(CCN(C(=O)Nc4ccc(OC)c(F)c4)CC3)C2=O)cc1 [NCGC00460264-01]	10.6	–
COc1ccc(-c2cc(=O)c3cc(C)ccc3[nH]2)cc1 [MLS000517811-01]	10.6	–
C=CCOC(=O)C1=C[C@@H](c2ccc(C(F)(F)F)cc2)[C@H](CCCO)[C@@H](OCC)O1 [MLS000766375-01]	7.5	–
Cc1ccc(NC(=O)N(Cc2ccc3c(c2)OCO3)Cc2cc3cc4c(cc3[nH]c2=O)OCCO4)cc1 [MLS000033889-01]	6.68	–
Cc1cnc(C2CCC2)n1C1CCCN(C(=O)CCCc2ccccc2)C1 (centres unmarked) [NCGC00464236-01]	15	–

SMILES	AC50 (read-out: AC50) [µM]	AC50 [µM]
Cc1ccc(C)c(OCCn2cc(C(=O)c3ccco3)c3ccccc32)c1 [NCGC00101856-01]	–	5.31
COc1ccc(-c2c[nH]c([C@@H]3COCCN3Cc3ccccc3O)n2)cc1 [NCGC00394307-01]	17.2	–
Cc1c(O)c(CN(C)C)cc2c1oc(=O)c1ccccc12 [MLS000778334-01]	4.22	–
c1ccc(Oc2ccc(Nc3cnc4ccc(N5CCOCC5)nn34)cc2)cc1 [NCGC00412601-01]	7.69	–
CC1=C[C@@H](CNC(C)C)[C@H](C(C)C)C[C@H]1Cc1nnc(-c2ccc(C)cc2)o1 [NCGC00394176-01]	13.7	–
COC(=O)C1=C(c2ccc(OC)c(OC)c2)C[C@@H]2CC[C@H]1N2C(=O)NCc1cccc2ccccc12 [MLS002302726-01]	3.35	–
O=C1N(c2ccccc2C(F)(F)F)O[C@@]1(c1ccccc1)C1CCCC1 [MLS002206604-01]	2.99	–
COc1cc(=O)n2c(c1C(=O)Nc1ccc(N(C)C)cc1)CCCC2 [NCGC00435410-01]	10.6	–
Cc1nc2c(c(-c3ccc(O)cc3)n1)CN(Cc1ccc(C(F)(F)F)cc1)CCC2 [NCGC00480263-01]	4.22	–
COc1cc(C2CC(=O)Nc3cc4c(cc32)OCCO4)cc(Br)c1OC (centres unmarked) [NCGC00107055-01]	5.31	–
O[C@@H]1C[C@@](CNCc2cccc(Cl)c2)(COc2ccccc2)C[C@@H]1O [NCGC00392187-01]	3.85	–
CCc1ccc2c(c1)cc(CN(/C(S)=N/c1cccc(C)c1)C1CC1)c1nnnn12 [MLS000556704-01]	3.35	–
CC(C)(Oc1nn(CC2CC2)c2ccc(CN3CCCC3)cc12)C(N)=O [NCGC00419502-01]	13.7	–
CS(=O)(=O)c1ccc(C(=O)Nc2ccc(-c3nc4ccccc4[nH]3)cc2)cc1 [MLS001166841-01]	7.5	–
Cc1cc(C)c(/C=C/c2onc(C)c2[S+](=O)([O-])N2CCC(C(=O)Nc3ccc(Cl)c(C(F)(F)F)c3)CC2)c(C)c1 [NCGC00132732-01]	10.6	–
CC1CCN(Cc2c(O)ccc3c(=O)c(Oc4ccccc4Cl)c(C(F)(F)F)oc23)CC1 [NCGC00101482-01]	1.33	–
